Values quoted from earlier work in patent US20260283943A1, “STARCHLESS MOLDING PROCESS FOR ORAL PRODUCTS” (NICOVENTURES TRADING LIMITED, priority 2023, published 2026).

Assays:
[1] = isolated substance

| SMILES | Solubility in water | Chemical stability [1] |
| --- | --- | --- |
| C=C(C)[C@@H]1CCC(C)=C[C@H]1c1c(O)cc(CCCCC)cc1O [CBD, cannabidiol, reference compound] | insoluble in an aqueous environment |  |
| COC(=O)/C=C/C(C)=C\C=C\C(C)=C\C=C\C=C(C)\C=C\C=C(C)\C=C\C(=O)O [bixin, (2E,4E,6E,8E,10E,12E,14E,16Z,18E)-20-methoxy-4,8,13,17-tetramethyl-20-oxoicosa-2,4,6,8,10,12,14,16,18-nonaenoic acid] | insoluble in water | chemically unstable when isolated |
